# Legend:
# [1] = system: MV4-11; assay: Cytotoxicity towards MV4-11 cell line; type: cell-based; details: Homo sapiens
# Method: (§1) In various embodiments, the compounds of the disclosure are those in which show IC50 values in cytotoxicity experiments towards cells lines MV4-11 and U937 of >20 μM, 10-20 μM, 5-10 μM, 1-5 μM, or <1 μM.
# (§2) The IC50 is divided into 5 categories: A<1 μM, B 1-5 μM, C 5-10 μM, D 10-20 μM, and E>20 μM.
# [2] = system: U-937; assay: Cytotoxicity towards U-937 cell line; type: cell-based; details: Homo sapiens
# Method: as §1, §2
Compound,IC50 [1] [nM],IC50 [2] [nM]
O=C(NCCCn1ccnc1)c1ccc(CN2CCc3ccccc3C2)cc1 [TT-01902],10000 to 20000,5000 to 10000
O=C(NCCCn1ccnc1)c1ccc(N2CCCC2)c(C#Cc2ccccc2)c1 [TT-02683],< 1000,< 1000
O=C(NCc1cccnc1)c1ccc(-n2cccn2)c(C#Cc2ccccc2)c1 [TT-02684],< 1000,< 1000
O=C(NCCc1c[nH]cn1)c1ccc(-n2cccn2)c(C#Cc2ccccc2)c1 [TT-02686],5000 to 10000,10000 to 20000
Cc1nccn1CCCNC(=O)c1ccc(-n2cccn2)c(C#Cc2ccccc2)c1 [TT-02689],1000 to 5000,1000 to 5000
O=C(Nc1ccc(Cn2ccnc2)cc1)c1ccc(-n2cccn2)c(C#Cc2ccccc2)c1 [TT-02690],5000 to 10000,10000 to 20000
Cc1cc(SCCNC(=O)c2ccc(-n3cccn3)c(C#Cc3ccccc3)c2)[nH]n1 [TT-02691],10000 to 20000,5000 to 10000
Cc1ccn(CCNC(=O)c2ccc(-n3cccn3)c(C#Cc3ccccc3)c2)n1 [TT-02692],> 20000,< 1000
O=C(NCCn1ccnc1)c1ccc(-n2cccn2)c(C#Cc2ccccc2)c1 [TT-02694],> 20000,< 1000
O=C(NCCCn1ccnc1)c1ccc(-n2cccn2)c(C#Cc2ccccn2)c1 [TT-02695],< 1000,< 1000
O=C(NCCc1nccs1)c1ccc(-n2cccn2)c(C#Cc2ccccc2)c1 [TT-02707],> 20000,< 1000
O=C(NCCCn1cccn1)c1ccc(-n2cccn2)c(C#Cc2ccccc2)c1 [TT-02709],> 20000,< 1000
Cn1ccnc1CNC(=O)c1ccc(-n2cccn2)c(C#Cc2ccccc2)c1 [TT-02713],> 20000,< 1000
O=C(NCCCc1cn[nH]c1)c1ccc(-n2cccn2)c(C#Cc2ccccc2)c1 [TT-02715],< 1000,< 1000
O=C(NCCCCn1ccnc1)c1ccc(-n2cccn2)c(C#Cc2ccccc2)c1 [TT-02717],< 1000,< 1000
Cn1cnc(CNC(=O)c2ccc(-n3cccn3)c(C#Cc3ccccc3)c2)c1 [TT-02721],> 20000,> 20000
O=C(NCCCn1ccnc1)c1ccc(-n2cnnc2)c(C#Cc2ccccc2)c1 [TT-02731],< 1000,< 1000
Cc1nncn1-c1ccc(C(=O)NCCCn2ccnc2)cc1C#Cc1ccccc1 [TT-02732],< 1000,< 1000
O=C(NCCCn1ccnc1)c1ccc(Oc2ccccc2)c(C#Cc2ccccc2)c1 [TT-02741],< 1000,< 1000
Cc1ccc(C#Cc2cc(C(=O)NCCCn3ccnc3)ccc2-n2cccn2)cc1 [TT-02745],< 1000,< 1000
O=C(NCCCn1ccnc1)c1ccc(-n2cccn2)c(C#Cc2ccc(F)cc2)c1 [TT-02746],< 1000,< 1000
O=C(NCCCn1ccnc1)c1ccc(-n2cccn2)c(C#Cc2ccc(C(F)(F)F)cc2)c1 [TT-02747],10000 to 20000,5000 to 10000
O=C(NCCCn1ccnc1)c1ccc(-n2cccn2)c(C#Cc2cccc(Cl)c2)c1 [TT-02749],< 1000,< 1000
O=C(NCCCn1ccnc1)c1ccc(-n2cccn2)c(C#Cc2ccccc2Cl)c1 [TT-02750],< 1000,< 1000
CC1CN(c2ncc(C(=O)NCCCc3cn[nH]c3)cc2C#Cc2ccc(F)cc2)CCN1 (stereo not drawn) [TT-03756],< 1000,
CC1CC(C)CN(c2ncc(C(=O)NCCCc3cn[nH]c3)cc2C#Cc2ccc(F)cc2)C1 (stereo not drawn) [TT-03761],< 1000,
COC1CCCN(c2ncc(C(=O)NCCCc3cn[nH]c3)cc2C#Cc2ccc(F)cc2)C1 (stereo not drawn) [TT-03762],< 1000,
O=C(NCCCc1cn[nH]c1)c1cnc(N2CCOCC2)c(C#Cc2ccc(F)cc2)c1 [TT-03767],< 1000,
O=C1CN(c2ncc(C(=O)NCCCc3cn[nH]c3)cc2C#Cc2ccc(F)cc2)CCN1 [TT-03768],< 1000,
CC1CN(c2ncc(C(=O)NCCCc3cn[nH]c3)cc2C#Cc2ccc(F)cc2)CCN1C(=O)OC(C)(C)C (stereo not drawn) [TT-03772],< 1000,

# Source: patent US10538520B2, “Benzamide and nicotinamide compounds and methods of using same” (OncoTartis Inc., priority 2013, dated 2020)
